Assay results: the NIST ThermoML archive (doi:10.1021/je9004189)
Numbers after ± are expanded uncertainties.

Tests used:
[1] = refractive index (Na D-line) (dimensionless); conditions: 293.15 K; 101.33 kPa; Liquid; Standard Abbe refractometry
[2] = 293.15 K, 101.33 kPa, Liquid

CC(C)=O [acetone]
refractive index [1]: 1.359 ± 0.0007
mass density [2]: 790 ± 1 kg/m3

CO [methanol]
refractive index [1]: 1.3301 ± 0.0007
mass density ([2]; Vibrating tube method): 792 ± 1 kg/m3

CCO [ethanol]
refractive index [1]: 1.366 ± 0.0007
mass density ([2]; Vibrating tube method): 790 ± 1 kg/m3

c1ccccc1 [benzene]
refractive index [1]: 1.5011 ± 0.0007
mass density ([2]; Vibrating tube method): 879 ± 1 kg/m3
